Assay results published in patent publication US20070202047A1, “Polyamine-substituted ligands for use as contrast agents” (priority 2006, published 2007).

Legend:
[1] = system: subcutaneous MH3924A tumor; test: MRI of ACI rats bearing a subcutaneous MH3924A tumor; assay type: in vivo, rat; conditions: 1 h post Gd, 0.1 mmol/kg i.v., 2.35 T
Experimental: (§1) Animal models. For in vivo tumor studies 2×10^6 MH3924A tumor cells were injected subcutaneously into the right thigh of male ACI rats (Charles River, Sulzfeld, Germany) weighing 220 to 260 g. All animal experiments were performed in compliance with the German Animal Protection Laws (Permission 35-9185.81/G-7-03, Reg.-Praesidium, Karlsruhe, Germany).
MRI. At 25 days after inoculation, when tumors had reached a diameter of ca. 10-15 mm, the MR imaging experiments were initiated. ACI rats were anesthetized by intravenous injection of ketamin (Ketanest®, 0.1 mg/g body wt.; Parke-Davis, Berlin, Germany). Then a dose of 0.1 mmol/kg Magnevist® or Gadovist® (Schering, Berlin, Germany) or one of the synthesized agents Gd-3.1., Gd-5.1. or Gd-6.1. was injected intravenously into a lateral tail vein. For one experiment a higher dose (0.36 mmol/kg) of Magnevist® was used. Individual rats were examined by MRI at 1 h and 24 h post Gd, in the case of Magnevist® also at ca. 15 min post Gd. Proton imaging studies were performed at 2.35 T (100.3 MHz) with a Biospec 24/40 instrument (Bruker BioSpin MRI, Ettlingen, Germany). […] Two transaxial multislice imaging protocols were applied with a field of view of 70×70 mm, 128 time-domain data points, 96 phase-encoding steps, and 16 slices of 2 mm thickness. A multi-spin-echo sequence was used for proton-density and T2-weighted images (repetition time TR=2 s, 12 echoes with echo times TE of 8, 16, 24, . . . 96 ms, number of averages=1), and a spoiled gradient-echo sequence was used for T1-weighted imaging (TR=212 ms, TE=5 ms, flip angle=60°, number of averages=3). The data were Fourier transformed to give a 128×128 image matrix with 0.55 mm pixel resolution. Analogous T1-weighted images with coronal slices were acquired with a field of view of 80×80 mm and 3-mm slice thickness.
Imaging viewing, ROI analysis and export of TIFF files was performed with the freeware MRIcro from Chris Rorden (http://people.cas.sc.edu/rorden/mricro.html).

[2] = system: B16, MH3924A, Hela, MCF-7, A498 and mouse fibroblasts (3T3 NIH); test: Intracellular uptake, cell panel of FIG. 7A (ICP-MS); assay type: cell-based; conditions: 1-h incubation, 10-100 μM, samples of 3×10^6 cells (FIG. 7A)
Experimental: (§2) Cell Uptake Studies. A493 (human kidney), B16 melanoma cells (mouse), HeLa (human cervix), MCF-7 (human breats), MH3924A (Morris hepatoma) cells (rat) and 3T3 NIH (mouse fibroblasts) were obtained from the DKFZ tumor cell collection. 3×10^6 cells of each cell type were grown for 24 hours in culture flasks. Afterwards they were incubated for 1 hour in 10 mL culture media containing 0, 10, 50 and 100 μM of Gd-2.2. Gd-3.2 or Gd-4.2. Afterwards the medium was removed, the cells were trypsinated, washed twice, resuspended in culture medium and counted. The gadolinium uptake was determined in triplicate. […] cells were incubated with 0, 1, 2.5, 5 and 10 μM of the Gd-1.2. and Gd-5.2. for 24 h.
(§3) ICP-MS: Equal cell counts were taken and digested with HNO3 under microwave heating (Mars5, CEM). The samples were diluted with water containing Rh-103 as an internal standard. Gd-157 measurements were performed with a high resolution ICP-mass spectrometer (ELEMENT 2, Finnigan MAT). The gadolinium concentrations were determined from standard curves created prior to sample analyses.

[3] = system: MH3924A Morris hepatoma cells; test: Intracellular uptake of gadolinium complexes (ICP-MS); assay type: cell-based, rat; conditions: MH3924A
Experimental: (§4) Cell culture. B16 melanoma cells (mouse) and MH3924A Morris hepatoma cells (rat) were obtained from the German Cancer Research Center (DKFZ) tumor bank and grown at 37° C. as stock cultures in RPMI 1640 supplemented with 10% fetal calf serum and 1% glutamine as standard medium under a 5% CO2 atmosphere (all components: Pan Biotech GmbH, Aidenbach, Germany). For contrast agent uptake studies 10^6 cells were inoculated into 25 cm^2 culture flasks (BD Biosciences, Bedford, USA) and grown for 24 h in 10 mL of the standard culture medium. Cells were then incubated for an additional 24 h (1 h for temperature dependence studies) with fresh medium containing 0, 1, 2.5, 5 or 10 μM of the selected gadolinium complex (three replicate flasks for each incubation). Afterwards the medium was removed, cells were trypsinated, washed twice, resuspended in culture medium and counted (typical yields: 3.5-6 million cells). For comparison 2.5×10^5 human melanocytes (Promo Cell, Heidelberg, Germany) were incubated for 24 h with melanocyte growth medium (Promo Cell, Heidelberg, Germany) containing 0, 1, 2.5, 5 or 10 μM of the selected gadolinium complex (two replicate flasks for each incubation). The work up procedure was as described above typically yielding 2.5×10^5 cells. Cultured human hepatocytes (Cytonet GmbH, Weinheim, Germany) embedded in a collagen matrix in a 12 well microtiter plate, with 6×10^5 viable cells per well were incubated for 24 h in hepatocyte growth medium (Cytonet GmbH, Weinheim, Germany) containing the same concentration series of selected gadolinium complexes. Afterwards the medium was removed, cells were separated using collagenase (Roche Diagnostics, Mannheim, Germany). After digestion the cells were washed twice with PBS, resuspended in culture medium and counted (typical yields: 6×10^5 cells per tube). The intracellular gadolinium content was determined by ICP-MS as described below.
(§5) ICP-MS. Samples containing the above mentioned number of harvested cells were digested with 50% concentrated HNO3 (Superselect; Merck, Darmstadt, Germany) under microwave heating with a Mars 5 apparatus (CEM GmbH, Kamp-Lintfort, Germany). To each sample 100 μL of an aqueous solution of rhodium chloride (1 μg/mL) were added so that Rh-103 could be used as an internal quantification standard. Gd-160 measurements were performed with the ICP-MS instrument mentioned above. The gadolinium concentrations were determined using standard curves created prior to cell analyses. For each uptake incubation condition triplicate cell samples were analyzed, and Gd content for each sample was recorded as the mean of two MS determinations.
(§6) Intracellular Uptake of Gadolinium Complexes. B16 melanoma and MH3924A hepatoma cells as well as human melanocytes and hepatocytes were incubated for 24 h in the presence of the gadolinium complexes shown in FIG. 1, using concentrations in the range of 1-10 μM. Incubations with the unsubstituted [Gd(DTPA)(H2O)]^2−complex (Magnevist®) served as controls. Following cell harvest and hydrolysis, inductively coupled plasma mass spectrometry (ICP-MS) with direct detection of gadolinium was used to quantitate complex uptake (triplicate cultures for each incubation).
as §2, with “h. […]” for “h.”

Complex stability = assay type: physicochemical; conditions: method of Sherry et al.
Experimental: Complex stability. The stability constants were determined using a method of Sherry et al. (39).

human serum albumin = target: T1, human serum albumin (Homo sapiens, UniProt P02768); test: Serum albumin binding (ultrafiltration, ICP-MS); assay type: in vitro ADME; conditions: 20 μM complex, 40 g/L HSA, 37° C., ultrafiltrate
T1 construct: purchased Behring, Bern, Switzerland
Experimental: Serum albumin binding. Solutions containing 20 μM Gd-3.1., Gd-5.1. or Gd-6.1. and 40 g/L human serum albumin (Behring, Bern, Switzerland) were incubated at 37° C. for 30 or 90 min. The solutions were subjected to ultrafiltration (filter cutoff 20 kD; Sartorius, Göttingen, Germany), and the amount of unbound complex was determined in the ultrafiltrate with ICP-MS (n=2).
HSA Binding: 20 μM solutions of the complexes were incubated at 37° C. for 30 and 90 minutes in a solution of 40 g HSA/L (Behring, Bern; Switzerland). The amount of unbound complex was determined in ultrafiltrates with ICP-MS.

[4] = system: HeLa (human cervix carcinoma cells); test: Intracellular uptake of gadolinium complexes (ICP-MS); assay type: cell-based; conditions: 1 h incubation, 100 μM
Experimental: as §2, §3

[5] = system: A498 (human kidney carcinoma); test: as above; assay type: cell-based; conditions: A498, 1 h incubation, 100 μM
Experimental: as §2, §3

[6] = system: MCF-7 (human breast cancer); test: as above; assay type: cell-based; conditions: MCF-7, 1 h incubation, 100 μM
Experimental: as §2, §3

[7] = Biodistribution in BALB/c nu/nu mice carrying B16 melanoma; assay type: in vivo, mouse; conditions: 1 h post i.v. injection, perfused organs, B16 melanoma-bearing mice
Experimental: as §1, with “model.” for “models.”, “3×10^6 B16” for “2×10^6 MH3924A”, “BALB/c nu/nu mice” for “ACI rats”, “18” for “220”, “21” for “260”
Biodistribution data. At 10 days after tumor inoculation, when tumors had reached a diameter of ca. 7-8 mm, the biodistribution experiments were initiated. Each animal (18-21 g) was given an intravenous tail-vein injection of 975 μmol/kg Gadovist® (Schering, Berlin, Germany) or 1 μmol/kg of Gd-2.2. 1 h post-injection (p.i.), the animals were weighed, sacrificed by cervical dislocation, perfused and dissected. Organs or tissues were blotted dry and weighed. Samples containing the tumor or organs were digested with concentrated HNO3 (Superselect; Merck, Darmstadt, Germany) and H2O2 under microwave heating with a Mars 5 apparatus (CEM GmbH, Kamp-Lintfort, Germany). To each sample 100 μL of an aqueous solution of rhodium chloride (1 μg/mL) were added so that Rh-103 could be used as an internal quantification standard. […] The gadolinium concentrations were determined using standard curves created prior to tissue analyses. The results are expressed as nmol Gd/g tissue scaled on the dose of 100 μmol of the corresponding Gd complex.

B16 melanoma cells = test: Intracellular uptake of gadolinium complexes (ICP-MS); assay type: cell-based, mouse; conditions: B16 melanoma cells, 1 h incubation, 100 μM
Experimental: as §4, §5, §6
as §2, with “h. […]” for “h.”

T1 sequence (P02768 25-609): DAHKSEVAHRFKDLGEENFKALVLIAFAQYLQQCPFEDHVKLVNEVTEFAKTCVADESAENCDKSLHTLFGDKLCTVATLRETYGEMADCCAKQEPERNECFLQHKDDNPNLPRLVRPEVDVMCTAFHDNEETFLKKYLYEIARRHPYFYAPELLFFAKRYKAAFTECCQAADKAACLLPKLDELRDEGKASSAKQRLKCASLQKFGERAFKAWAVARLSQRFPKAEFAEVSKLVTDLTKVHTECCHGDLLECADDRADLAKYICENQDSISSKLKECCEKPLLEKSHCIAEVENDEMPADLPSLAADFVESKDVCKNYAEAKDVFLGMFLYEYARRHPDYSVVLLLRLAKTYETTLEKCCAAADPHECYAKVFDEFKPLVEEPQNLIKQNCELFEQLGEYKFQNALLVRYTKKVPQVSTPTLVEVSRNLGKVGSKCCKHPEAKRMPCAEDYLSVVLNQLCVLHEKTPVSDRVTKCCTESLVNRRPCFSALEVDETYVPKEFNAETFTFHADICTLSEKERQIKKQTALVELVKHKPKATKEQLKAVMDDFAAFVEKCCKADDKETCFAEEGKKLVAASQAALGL

| SMILES | contrast ratio tumor vs. muscle tissue, T1 weighting [1] | intracellular uptake (below ICP-MS detection limit) [2] [fmol/cell] | intracellular gadolinium content after 1 h incubation plus additional 24 h in complex-free medium [3] | intracellular uptake of gadolinium complex ([3]; 1 h incubation with 100 μM complex) [fmol/cell] | complex stability constant (Complex stability) | complex found to be free (unbound) (human serum albumin) [%] | intracellular uptake of gadolinium complex [4] [fmol/cell] | intracellular uptake of gadolinium complex [5] [fmol/cell] | intracellular uptake of gadolinium complex [6] [fmol/cell] | preferential tissue binding (biodistribution) [7] | intracellular uptake of gadolinium complex (B16 melanoma cells) [fmol/cell] |
| --- | --- | --- | --- | --- | --- | --- | --- | --- | --- | --- | --- |
| O=C([O-])CN1CCN(CC(=O)[O-])CCN([C@H](CO)[C@H](O)CO)CCN(CC(=O)[O-])CC1.[Gd+3] (racemic) [Gadovist, gadobutrol, reference compound] | ≤ 1.06 | < 0.01 |  |  |  |  |  |  |  |  |  |
| NCCN(CCN)C(=O)CN1CCN(CC(=O)[O-])CCN(CC(=O)[O-])CCN(CC(=O)[O-])CC1.[Gd+3] [Gd-2.2] |  |  | the same as for the 1 h incubation | 0.222 | about 3.45×10^21 | 92±5 | 0.0078 | 0.023 | 0.0086 | binds preferentially to kidneys and skin tissue, but shows high tumor uptake as well | 0.057 |
